Source: article PMC4146677 (Bioorganic & medicinal chemistry letters, 2014)
In brackets after ≈: the same amount, converted by molar mass. Several values for one entry are separate records, joined by “and”; a condition that tells them apart may be missing. Equal values may be shown once. Entries after “also recorded” stand apart in the source; their conditions may differ. Read-outs that look alike come from different tables or passages of the source. Marks after values point to notes of the source that are not given here.

How the values were obtained:
BS P. falciparum K1 [1] = test: Blood stage antiplasmodial activity, 3H-hypoxanthine method; assay type: cell-based; settings: Plasmodium falciparum, K1, read-out: IC50 BS P. falciparum
zebrafish larvae liver = test: Hepatotoxicity in zebrafish larvae; assay type: in vivo, zebrafish (Danio rerio); settings: 6 dpf; for Hepatotoxic effects / liver phenotype at the MTC: 2-HDA 0.8 μM, 2-ODA 1 μM, 2-TDA 1.2 μM
Huh7 cells = test: Host cell viability of Huh7 cells; assay type: cell-based, human; settings: Alamar Blue; up to the highest test concentrations
PfFabZ [2] = target: T1, PfFabZ (Plasmodium falciparum, UniProt Q965D7); test: PfFabZ enzyme inhibition assay; assay type: biochemical, P. falciparum
T1 sequence (Q965D7 19-230): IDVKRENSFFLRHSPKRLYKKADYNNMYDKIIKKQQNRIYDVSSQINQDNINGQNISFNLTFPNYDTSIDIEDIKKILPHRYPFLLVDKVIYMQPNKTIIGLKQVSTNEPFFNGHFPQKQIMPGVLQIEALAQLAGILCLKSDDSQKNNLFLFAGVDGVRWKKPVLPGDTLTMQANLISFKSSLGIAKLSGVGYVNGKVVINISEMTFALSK

zebrafish larvae = test: General toxicity in zebrafish larvae; settings: treated 3 to 6 dpf, MTC at 6 dpf
PfFabG [3] = target: T2, PfFabG (Plasmodium falciparum, UniProt Q8I2S7); test: PfFabG enzyme inhibition assay; assay type: biochemical, P. falciparum
[4] = target: Leishmania topoisomerase IB enzyme; settings: read-out: EC50 Leishmania topoisomerase IB; ref [4]; cited from earlier work
L6 cells = settings: cited from earlier work
LS P. berghei = test: Liver stage P. berghei infection of Huh7 hepatoma cells; assay type: cell-based, Plasmodium berghei; settings: for Effect on P. berghei infection of Huh7 cells: 48 h treatment, Fig. 1
[5] = system: LS forms of Plasmodium yoelii; settings: ref [5], cited from earlier work
PfFabG [6] = target: T2, PfFabG; settings: values marked **; ref [3] (table footnote), [5]; cited from earlier work
[7] = ref [6]; cited from earlier work
PfFabI [8] = target: T3, PfFabI (Plasmodium falciparum, UniProt Q9BH77); settings: values marked **, ref [3] (table footnote), [5], cited from earlier work
T3 sequence (Q9BH77 22-432): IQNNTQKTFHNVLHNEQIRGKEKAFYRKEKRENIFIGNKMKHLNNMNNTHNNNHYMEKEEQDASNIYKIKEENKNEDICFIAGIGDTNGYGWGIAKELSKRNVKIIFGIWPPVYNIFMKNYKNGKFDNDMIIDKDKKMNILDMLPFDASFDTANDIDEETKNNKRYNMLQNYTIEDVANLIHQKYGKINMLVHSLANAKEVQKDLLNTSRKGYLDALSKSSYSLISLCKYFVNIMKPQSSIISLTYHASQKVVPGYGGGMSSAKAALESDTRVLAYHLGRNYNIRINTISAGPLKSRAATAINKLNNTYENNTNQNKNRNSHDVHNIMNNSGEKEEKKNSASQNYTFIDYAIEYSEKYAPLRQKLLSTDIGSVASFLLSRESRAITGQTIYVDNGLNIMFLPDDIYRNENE

BS P. falciparum K1 [9] = settings: K1 strain; values marked **; ref [3] (table footnote), [5]; cited from earlier work
Leishmania donovani = settings: read-out: EC50 against Leishmania donovani; ref [4]; cited from earlier work
PfFabZ [10] = target: T1, PfFabZ; settings: values marked **, ref [3] (table footnote), [5], cited from earlier work
[11] = target: PfFAS-II enzymes PfFabI, PfFabZ, PfFabG; test: PfFAS-II enzyme inhibition, range over PfFabI, PfFabZ and PfFabG; assay type: biochemical, P. falciparum; settings: range over the three enzymes
PfFabI [12] = target: T3, PfFabI; test: PfFabI enzyme inhibition assay; assay type: biochemical, P. falciparum
[13] = rat skeletal myoblasts, values marked *, ref [2]

CCN(CC)CCCC(C)Nc1ccnc2cc(Cl)ccc12 (stereo not drawn) [Chloroquine, reference compound]
IC50 (BS P. falciparum K1 [1]): 0.117 µg/mL (≈ 0.366 µM)

CC(=O)Nc1ccc(O)cc1 [paracetamol, reference compound]
Hepatotoxic effects / liver phenotype (zebrafish larvae liver; 3 days of exposure, 300 μM, positive control): smaller-sized liver

CCCCCCCCCCCC#CC(=O)O [2-TDA, 2-tetradecynoic acid]
IC50 (BS P. falciparum K1 [1]): 27.3 µg/mL (≈ 122 µM) | Effect on cell viability of Huh7 host cells (Huh7 cells): no apparent effects on cell viability | IC50 PfFabZ (PfFabZ [2]): 3.5 µg/mL (≈ 15.6 µM) | Maximum-tolerated concentration (MTC) (zebrafish larvae): 0.27 µg/mL | IC50 PfFabG (PfFabG [3]): 5.5 µg/mL (≈ 24.5 µM) | EC50 [4]: 68 µM | IC50 L6 cell toxicity (L6 cells; [13]): 9.2* μg/ml | Effect on P. berghei infection of Huh7 cells (LS P. berghei): greatly impaired infection | Hepatotoxic effects / liver phenotype at the MTC (zebrafish larvae liver; 3 days of exposure): induced liver toxicity; also recorded: round-shaped liver with reduced fluorescence | Hepatotoxic effects / liver phenotype (zebrafish larvae liver; 1.0 μM = 0.22 μg/ml, below the MTC): did not induce any apparent signs of liver toxicity

2-hexadecynoic acid [2-HDA]
IC50 LS P. yoelii ([5]; assessed by flow cytometry): 15.3 µg/mL | IC50 LS P. yoelii ([5]; assessed by immunofluorescence activity): 4.88 µg/mL | IC50 PfFabG (PfFabG [6]): 3.5** μg/ml | Maximum-tolerated concentration (MTC) (zebrafish larvae): 0.20 μg/ml and 0.8 μM | Critical micelle concentration (CMC) [7]: > 90 µg/mL | IC50 PfFabI (PfFabI [8]): 0.38** μg/ml | EC50 [4]: 28 µM | IC50 BS P. falciparum (BS P. falciparum K1 [9]): 10.4** μg/ml | EC50 (Leishmania donovani): 17.8 µM | IC50 PfFabZ (PfFabZ [10]): 0.58** μg/ml | IC50 L6 cell toxicity (L6 cells): 85.9** μg/ml | Hepatotoxic effects / liver phenotype at the MTC (zebrafish larvae liver; 3 days of exposure): non-hepatotoxic; also recorded: normal liver

COc1cc([C@@H]2c3cc4c(cc3[C@H](O)[C@H]3COC(=O)[C@H]23)OCO4)cc(OC)c1OC [Podophyllotoxin, reference compound]
IC50 L6 cell toxicity (L6 cells; [13]): 0.02^e,* μg/ml

CCCCCCCCCCCCCCCC(=O)O [PA, palmitic acid, reference compound]
IC50 (PfFabI [8]; read-out: IC50 PfFabI): > 390 µM | IC50 BS P. falciparum (BS P. falciparum K1 [9]): 3.8** μg/ml | IC50 (PfFabZ [10]; read-out: IC50 PfFabZ): > 390 µM | IC50 L6 cell toxicity (L6 cells): 52.7** μg/ml | LS activity at the highest test concentration (LS P. berghei; 25 μg/ml): devoid of any LS activity | Hepatotoxic effects / liver phenotype (zebrafish larvae liver; 3 days of exposure, 700 μM = 179.2 μg/ml): no hepatotoxic effects; also recorded: normal liver

CCCCCCCCCCCCCCCC#CC(=O)O [2-ODA, 2-octadecynoic acid]
Effect on cell viability of Huh7 host cells (Huh7 cells): no apparent effects on cell viability | IC50 PfFabZ (PfFabZ [2]): 0.28 µg/mL (≈ 0.998 µM) | IC50 values against PfFabI, PfFabZ and PfFabG (range) [11]: 0.28 to 0.80 µg/mL | IC50 PfFabG (PfFabG [3]): 0.80 µg/mL (≈ 2.85 µM) | Critical micelle concentration (CMC) [7]: 50 µg/mL | IC50 PfFabI (PfFabI [12]): 0.30 µg/mL (≈ 1.07 µM) | EC50 [4]: 5 µM | EC50 (Leishmania donovani): 11 µM | IC50 L6 cell toxicity (L6 cells; [13]): 5.6* μg/ml | Effect on P. berghei infection of Huh7 cells (LS P. berghei): greatly impaired infection | Hepatotoxic effects / liver phenotype at the MTC (zebrafish larvae liver; 3 days of exposure): non-hepatotoxic; also recorded: normal liver
